Data reported in article PMC5762338, “A novel orally available Syk/Src/Jak2 inhibitor, SKLB-850, showed potent anti-tumor activities in B cell lymphoma (BCL) models” (Oncotarget, 2017).

Experiments:
[1] = test system: Ramos xenograft; test: Ramos xenograft mouse model; assay type: in vivo, NOD/SCID mice
Protocol: (§1) The in vivo anti-BCL effects of SKLB-850 were investigated in the Ramos and HBL xenograft mouse models with R788 being taken as a positive control. The animals were treated orally once daily for 21 days (Ramos model) or 36 days (HBL-1 model).
(§2) All animal studies were conducted according to the guidelines of the Animal Care and Use Committee of Sichuan University (Permit Number: 20121205, Chengdu, Sichuan, China). Ramos and HBL-1 tumor cells were established by subcutaneously injecting 1×10^7 cells (100μL) into the hind flank region of 7–8 week old female NOD/SCID mice (ICR, NOD/SCID). When tumors reached a volume of ∼200 mm^3, mice were randomly divided into different groups (6 per group), and SKLB-850 (40 mg/kg, 20mg/kg) or vehicle (5% DMSO, 25% PEG400, and 70% waters) were given once daily by oral gavage. Tumor growth and body weight were measured every three days or every day during the treatment. Tumor volumes were calculated using the formula as follow: tumor volume (mm^3) = 0.5× length (mm) × width (mm) ^2. Studies were typically terminated when tumors in vehicle treated animals reached an average size of 2,000 mm^3. Solid tumors were removed and processed for immunohistochemical analysis and terminal deoxynucleotidyl transferase-mediated dUTP nick end labeling (TUNEL) assay.

[2] = test system: Ramos tumors; test: In situ TUNEL of tumor tissues from the Ramos model; assay type: in vivo, NOD/SCID mice
Text: (§3) The ability of inducing apoptosis of SKLB-850 in tumor tissues was examined by TUNEL. […] We then examined apoptotic tumor cells in B-cell lymphoma samples from BCL patients after SKLB-850 treatment by FCM. As shown in Figure 6C and 6F, SKLB-850 induced cell apoptosis (14.10 ± 4.04%), and R788 had the same effect but relatively weak (7.60 ± 0.52%). To better understand the mechanism of antitumor activities in vivo, Ki67 and CD20 in mouse tumor tissues were detected by immunohischemistry; Ki67 was a marker of proliferation in the diagnosis of tumors and CD20 was highly expressed in B cell lymphomas.
Cell apoptosis in Ramos tumors was determined by a TUNEL assay following the manufacturer’s instructions (Promega). The number of TUNEL-positive cells was quantified by fluorescence microscopy and the apoptotic index in 6 random fields per group was counted.

[3] = test system: HBL-1 xenograft; test: HBL-1 xenograft mouse model; assay type: in vivo, NOD/SCID mice; conditions: HBL-1 model
Protocol: as §1, §2

[4] = test system: B-cell lymphoma samples from BCL patients; test: Apoptosis of B-cell lymphoma samples from BCL patients, FCM; assay type: cell-based, Human; conditions: BCL patient samples, 24 hours, concentration not given
Text: as §3
Figure 6 SKLB-850 inhibited tumor growth by inducing apoptosis of tumor tissues from the Ramos model and BCL samples from patients (A and D) TUNEL immunofluorescent staining of tumor tissues from the Ramos model (n-6 mice per group). (B and E) Immunohistochemical staining analyses of Ki67 and CD20 in tumor tissues from the Ramos model. (C and F) Apoptosis of tumor cells from the BCL patients induced by SKLB-850. Tumor tissues from BCL patients were treated with a series of concentrations of SKLB-850 or R788, and stained with AnnexinV-FITC and propidium iodide, then analyzed with a flow cytometer. […]
Human lymph nodes were collected aseptically from B-cell lymphoma patients (n = 4 for both groups, Supplementary Table 1). […] Cell apoptosis was analyzed with a flow cytometer (BD FACS Calibur, BD, USA).

[5] = positive control, orally once daily

Row | Compound | anti-tumor effect (in words) [1, 5] | apoptosis in tumor tissues (TUNEL) [2] | anti-tumor effect (in words) [3, 5] | cell apoptosis [4] | tumor inhibition rate ([1]; 20 mg/kg orally once daily for 21 days) | tumor inhibition rate ([1]; 40 mg/kg orally once daily for 21 days) | tumor inhibition rate ([3]; 20 mg/kg orally once daily for 36 days)
1 | COc1cc(Nc2ncc(F)c(Nc3ccc4c(n3)N(COP(=O)(O)O)C(=O)C(C)(C)O4)n2)cc(OC)c1OC [R788, reference compound] | some anti-tumor effect | 242.20 ± 20.00 % of control | some anti-tumor effect | 7.60 ± 0.52% | – | – | –
2 | CN1CCN(c2ccc(Nc3ncc(F)c(Nc4ccc(Cl)cc4C(N)=O)n3)cc2)CC1 [SKLB-850, 5-chloro-2-((5-fluoro-2-((4-(4-methylpiperazin-1-yl)phenyl)amino)pyrimidin-4-yl)amino) benzamide] | – | 406.00 ± 20.70 % of control | – | 14.10 ± 4.04% | 73.65% ± 21.22% | 78.82% ± 9.35% | 80.84% ±4.09%
